Assay results as given in US6677460B1, “Aromatic carboxylic acid bicyclic sulfur compounds” (Idemitsu Kosan Company, Limited, priority 1993, dated 2004).

What was measured:
Format in all cases: in vivo
[1] = test system: slender amaranth; assay: Upland soil treatment test (8); details: 1000 g a.i./hectare, 20th day after spraying
Method: (§1) 90 Parts by weight of the above carrier and 10 parts by weight of each of Compounds obtained in the above Preparation Examples were uniformly pulverized and mixed to obtain herbicides. Further, for Herbicide Comparative Examples, comparative herbicides were prepared by uniformly pulverizing and mixing 90 parts by weight of the above carrier and 10 parts by weight of each of the following Compounds x, y, A, B and C.
(§2) (8) Biological Test (Upland Soil Treatment Test, Herbicide Examples 48-52 and Herbicide Comparative Examples 13 and 14)
(§3) Seeds of weeds such as large crabgrass, barnyard brass, green foxtail, cocklebur, velvetleaf and slender amarnth and seeds of corn, wheat and barley were sown in 1/5,000-are Wagner pots filled with upland soil, and covert with upland soil. Then, a predetermined amount of the herbicide prepared in the above (1) was suspended in water and uniformly sprayed onto the soil surface. Thereafter, the plant were grown in the greenhouse, and on the 20th day after the spraying treatment, the herbicide was evaluated for herbicidal efficacy.
(§4) The herbicidal efficacy and the phytotoxicity to crops are shown on the basis of the ratings described in (2) Foliar treatment test.

[2] = test system: cocklebur; assay: Upland soil treatment test (8); details: 1000 g a.i./hectare, 20th day after spraying
Method: as §1, §2, §3, §4

[3] = test system: large crabgrass; assay: Upland soil treatment test (8); details: 1000 g a.i./hectare, 20th day after spraying
Method: as §1, §2, §3, §4

[4] = test system: barnyard grass; assay: Upland soil treatment test (8); details: 1000 g a.i./hectare, 20th day after spraying
Method: as §1, §2, §3, §4

[5] = test system: green foxtail; assay: Upland soil treatment test (8); details: 1000 g a.i./hectare, 20th day after spraying
Method: as §1, §2, §3, §4

[6] = test system: velvetleaf; assay: Upland soil treatment test (8); details: 1000 g a.i./hectare, 20th day after spraying
Method: as §1, §2, §3, §4

[7] = test system: slender amaranth; assay: Foliar treatment test (7); details: 1000 g a.i./hectare, 20th day after spraying
Method: as §1
(§5) (7) Biological Test (Foliar Treatment Test, Herbicide Examples 43-47 and Comparative Examples 11 and 12)
as §3, with “barnyardgrass,” for “barnyard brass,”, “amaranth” for “amarnth”, “covered” for “covert”, “The seeds were grown in a greenhouse, and at the stage of 1 to 2 leaves of these plants,” for “Then,”, “leaf and stalk portions at a rate of 200 liter/10 ares.” for “the soil surface.”, “plants” for “plant”
(§6) The herbicidal efficacy and phytotoxcity to crops were shown on the basis of the following ratings.
(§7) The ratio of remaining plant weight to non-treated was determined on the basis of the ratio of remaining plant weight to non-treated=(remaining plant weight in treated plot/remaining plant weight in non-treated plot)×100. This is also applicable to biological tests hereinafter.

[8] = test system: cocklebur; assay: Foliar treatment test (7); details: 1000 g a.i./hectare, 20th day after spraying
Method: as §1, §5
as §3, with “barnyardgrass,” for “barnyard brass,”, “amaranth” for “amarnth”, “covered” for “covert”, “The seeds were grown in a greenhouse, and at the stage of 1 to 2 leaves of these plants,” for “Then,”, “leaf and stalk portions at a rate of 200 liter/10 ares.” for “the soil surface.”, “plants” for “plant”
as §6, §7

[9] = test system: large crabgrass; assay: Foliar treatment test (7); details: 1000 g a.i./hectare, 20th day after spraying
Method: as §1, §5
as §3, with “barnyardgrass,” for “barnyard brass,”, “amaranth” for “amarnth”, “covered” for “covert”, “The seeds were grown in a greenhouse, and at the stage of 1 to 2 leaves of these plants,” for “Then,”, “leaf and stalk portions at a rate of 200 liter/10 ares.” for “the soil surface.”, “plants” for “plant”
as §6, §7

[10] = test system: barnyardgrass; assay: Foliar treatment test (7); details: 1000 g a.i./hectare, 20th day after spraying
Method: as §1, §5
as §3, with “barnyardgrass,” for “barnyard brass,”, “amaranth” for “amarnth”, “covered” for “covert”, “The seeds were grown in a greenhouse, and at the stage of 1 to 2 leaves of these plants,” for “Then,”, “leaf and stalk portions at a rate of 200 liter/10 ares.” for “the soil surface.”, “plants” for “plant”
as §6, §7

[11] = test system: green foxtail; assay: Foliar treatment test (7); details: 1000 g a.i./hectare, 20th day after spraying
Method: as §1, §5
as §3, with “barnyardgrass,” for “barnyard brass,”, “amaranth” for “amarnth”, “covered” for “covert”, “The seeds were grown in a greenhouse, and at the stage of 1 to 2 leaves of these plants,” for “Then,”, “leaf and stalk portions at a rate of 200 liter/10 ares.” for “the soil surface.”, “plants” for “plant”
as §6, §7

[12] = test system: velvetleaf; assay: Foliar treatment test (7); details: 1000 g a.i./hectare, 20th day after spraying
Method: as §1, §5
as §3, with “barnyardgrass,” for “barnyard brass,”, “amaranth” for “amarnth”, “covered” for “covert”, “The seeds were grown in a greenhouse, and at the stage of 1 to 2 leaves of these plants,” for “Then,”, “leaf and stalk portions at a rate of 200 liter/10 ares.” for “the soil surface.”, “plants” for “plant”
as §6, §7

[13] = test system: slender amaranth; assay: Foliar treatment test (2); details: dosage 10 g a.i./are, 20th day after treatment
Method: as §1
(§8) (2) Biological Test (Foliar Treatment Test, Herbicide Examples 1 and 2 and Herbicide Comparative Examples 1 and 2)
(§9) Seeds of weeds such as large crabgrass, barnyard grass, green foxtail, cocklebur, velvetleaf and slender amaranth and seeds of corn, wheat and barley were sown in 1/5,000-are Wagner pots filled with upland soil, and covered with upland soil. The seeds were grown in a greenhouse, and at the stage of 1˜2 leaves of these plants, a predetermined amount of the herbicide prepared in the above (1) was suspended in water and uniformly sprayed onto leaf and stalk portions at a rate of 200 liter/10 are. Thereafter, the plants were grown in the greenhouse, and on 20th day after the treatment, the herbicide was evaluated for herbicidal efficacy.
as §6, §7

[14] = test system: cocklebur; assay: Foliar treatment test (2); details: dosage 10 g a.i./are, 20th day after treatment
Method: as §1, §8, §9, §6, §7

[15] = test system: large crabgrass; assay: Foliar treatment test (2); details: dosage 10 g a.i./are, 20th day after treatment
Method: as §1, §8, §9, §6, §7

[16] = test system: barnyard grass; assay: Foliar treatment test (2); details: dosage 10 g a.i./are, 20th day after treatment
Method: as §1, §8, §9, §6, §7

[17] = test system: green foxtail; assay: Foliar treatment test (2); details: dosage 10 g a.i./are, 20th day after treatment
Method: as §1, §8, §9, §6, §7

[18] = test system: velvetleaf; assay: Foliar treatment test (2); details: dosage 10 g a.i./are, 20th day after treatment
Method: as §1, §8, §9, §6, §7

[19] = test system: slender amaranth; assay: Upland soil treatment test (3); details: dosage 10 g a.i./are, 20th day after treatment
Method: as §1
(§10) (3) Biological Test (Upland Soil Treatment Test, Herbicide Examples 3 and 4 and Herbicide Comparative Examples 3 and 4)
as §3, with “barnyardgrass,” for “barnyard brass,”, “amaranth” for “amarnth”, “covered” for “covert”, “plants” for “plant”, “on” for “on the”, “the” for “the spraying”
as §4

[20] = test system: cocklebur; assay: Upland soil treatment test (3); details: dosage 10 g a.i./are, 20th day after treatment
Method: as §1, §10
as §3, with “barnyardgrass,” for “barnyard brass,”, “amaranth” for “amarnth”, “covered” for “covert”, “plants” for “plant”, “on” for “on the”, “the” for “the spraying”
as §4

[21] = test system: large crabgrass; assay: Upland soil treatment test (3); details: dosage 10 g a.i./are, 20th day after treatment
Method: as §1, §10
as §3, with “barnyardgrass,” for “barnyard brass,”, “amaranth” for “amarnth”, “covered” for “covert”, “plants” for “plant”, “on” for “on the”, “the” for “the spraying”
as §4

[22] = test system: barnyard grass; assay: Upland soil treatment test (3); details: dosage 10 g a.i./are, 20th day after treatment
Method: as §1, §10
as §3, with “barnyardgrass,” for “barnyard brass,”, “amaranth” for “amarnth”, “covered” for “covert”, “plants” for “plant”, “on” for “on the”, “the” for “the spraying”
as §4

[23] = test system: green foxtail; assay: Upland soil treatment test (3); details: dosage 10 g a.i./are, 20th day after treatment
Method: as §1, §10
as §3, with “barnyardgrass,” for “barnyard brass,”, “amaranth” for “amarnth”, “covered” for “covert”, “plants” for “plant”, “on” for “on the”, “the” for “the spraying”
as §4

[24] = test system: velvetleaf; assay: Upland soil treatment test (3); details: dosage 10 g a.i./are, 20th day after treatment
Method: as §1, §10
as §3, with “barnyardgrass,” for “barnyard brass,”, “amaranth” for “amarnth”, “covered” for “covert”, “plants” for “plant”, “on” for “on the”, “the” for “the spraying”
as §4
Note: ranges in brackets are in %.

## Pyrazolate [x, reference compound]
[1]
  Herbicidal Efficacy slender amaranth: 1 (61-80)
[2]
  Herbicidal Efficacy cocklebur: 0 (81-100)
[3]
  Herbicidal Efficacy large crabgrass: 0 (81-100)
[4]
  Herbicidal Efficacy barnyard grass: 0 (81-100)
[5]
  Herbicidal Efficacy green foxtail: 0 (81-100)
[6]
  Herbicidal Efficacy velvetleaf: 0 (81-100)
[7]
  Herbicidal Efficacy slender amaranth: 0 (81-100)
[8]
  Herbicidal Efficacy cocklebur: 0 (81-100)
[9]
  Herbicidal Efficacy large crabgrass: 0 (81-100)
[10]
  Herbicidal Efficacy barnyard grass: 0 (81-100)
[11]
  Herbicidal Efficacy green foxtail: 0 (81-100)
[12]
  Herbicidal Efficacy velvetleaf: 0 (81-100)
[13]
  Herbicidal Efficacy slender amaranth: 1 (61-80)
[14]
  Herbicidal Efficacy cocklebur: 0 (81-100)
[15]
  Herbicidal Efficacy large crabgrass: 0 (81-100)
[16]
  Herbicidal Efficacy barnyard grass: 0 (81-100)
[17]
  Herbicidal Efficacy green foxtail: 0 (81-100)
[18]
  Herbicidal Efficacy velvetleaf: 0 (81-100)
[19]
  Herbicidal Efficacy slender amaranth: 0 (81-100)
[20]
  Herbicidal Efficacy cocklebur: 0 (81-100)
[21]
  Herbicidal Efficacy large crabgrass: 0 (81-100)
[22]
  Herbicidal Efficacy barnyard grass: 0 (81-100)
[23]
  Herbicidal Efficacy green foxtail: 0 (81-100)
[24]
  Herbicidal Efficacy velvetleaf: 0 (81-100)
